Source: paper PMC11599599, “Synthesis, characterization, molecular docking, pharmacokinetics, and molecular dynamics of new bis-thiazoles based on bis-thiosemicarbazone as anti-coxsackievirus” (Scientific Reports, 2024)

Legend:
Vero cells = experiment: Cytotoxicity assay on Vero cells (microscopic morphology); assay type: cell-based; set-up: key to Cytotoxicity on Vero cells (cell sheet affected): -: Safe concentration; + 1, +2, + 3, +4: about 25, 50, 75, 100% of cell sheet was affected respectively; + 1, +2, + 3, +4: about 25, 50, 75, 100% of cell sheet was affected respectively; + 1, +2, + 3, +4: about 25, 50, 75, 100% of cell sheet was affected respectively; + 1, +2, + 3, +4: about 25, 50, 75, 100% of cell sheet was affected respectively; M: masked (color of compounds made cells unseen); settings: for Cytotoxicity on Vero cells (cell sheet affected): 24 h, morphological changes; for Safety effect on Vero cells (in words): Table 1, 24 h
Description: (§1) Compounds: 10 mg were dissolved in 1 mL (10% DMSO and 90% deionized water), sterilized by 1% antibiotic–antimycotic mixture and stored in −20.
(§2) Cells: Vero cell line was used. The cells were propagated in DMEM medium (Lonza, USA) supplemented with 10% fetal bovine serum (Gibco, USA), 1% antibiotic–antimycotic mixture (Lonza, USA).
Cytotoxic effect of compounds was measured by inoculation different doses of compounds on tested cells then examining them microscopically after 24 h to determine any morphological changes that appeared on cells as a result of being subjected to the compounds[46]. Vero cells were seeded onto 96-well plates, which were then incubated for the whole night. After a 24-hour incubation period at 37 °C in a humidified incubator with 5% CO2, compounds were injected at concentrations of 10, 20, 30, 40, 50, 60, 70, 80, 90, and 100 µg /100 µl. Any morphological changes were monitored under a microscope.

Cox B virus = experiment: Plaque reduction assay against Cox B virus; assay type: cell-based; settings: for inhibition at 20 µg/mL / inhibition at 40 µg/mL: Vero
Description: as §1, §2
Virus: Cox B virus was propagated and titrated to give final count of 0.9 × 10^5 viral particle/mL.
This test was done according to Tebas et al.[47], In a 12-well plate Vero cells (10^5 cells/mL) were cultivated for 1 day at 37 °C. The Cox B virus was mixed with the safe concentration of the compound and incubated for 1 h at 37 °C before being added to the cells. Following the removal of the growth media, the cells were injected with virus-extract combinations ([…]) and then rinsed with PBS (Phosphate Buffer Saline). Following a one-hour contact period for virus adsorption, the cell monolayer was supplemented with one milliliter of Dulbecco’s Modified Eagles Media (DMEM) containing 2% agarose. The plates were then allowed to solidify and incubated at 37 °C until the development of viral plaques. Formalin (10%) was added for 2 h then plates were stained with crystal violet. Control wells were included where untreated virus was incubated with Vero cells and finally plaques were counted and percentage reduction in plaques formation in comparison to control wells was recorded as following:
% inhibition = (viral count(untreated) - viral count(treated))/viral count(untreated)X100.

SMILES | Cytotoxicity on Vero cells (cell sheet affected) (Vero cells; 10 µg/100µl) | Cytotoxicity on Vero cells (cell sheet affected) (Vero cells; 20 µg/100µl) | Cytotoxicity on Vero cells (cell sheet affected) (Vero cells; 30 µg/100µl) | Cytotoxicity on Vero cells (cell sheet affected) (Vero cells; 40 µg/100µl) | Cytotoxicity on Vero cells (cell sheet affected) (Vero cells; 50 µg/100µl) | Cytotoxicity on Vero cells (cell sheet affected) (Vero cells; 60 µg/100µl) | Cytotoxicity on Vero cells (cell sheet affected) (Vero cells; 70 µg/100µl) | Cytotoxicity on Vero cells (cell sheet affected) (Vero cells; 80 µg/100µl) | Cytotoxicity on Vero cells (cell sheet affected) (Vero cells; 90 µg/100µl) | Cytotoxicity on Vero cells (cell sheet affected) (Vero cells; 100 µg/100µl) | Safety effect on Vero cells (in words) (Vero cells) | Viral count (treated) (Cox B virus; 20 ug/mL) | Viral count (treated) (Cox B virus; 40 ug/mL) | inhibition at 20 µg/mL (Cox B virus) [%] | inhibition at 40 µg/mL (Cox B virus) [%]
COc1ccc(OC)c(C=C2/C(=N/Nc3nc(C)c(/N=N/c4ccc(Cl)cc4)s3)c3ccccc3/C2=N\Nc2nc(C)c(/N=N/c3ccc(Cl)cc3)s2)c1 [7c, 2,2’-(((1E,3E)−2-(2,5-dimethoxybenzylidene)−1H-indene-1,3(2H)-diylidene)bis(hydrazin-1-yl-2-ylidene))bis(5-((E)-(4-chlorophenyl)diazenyl)−4-methylthiazole)] | - | - | - | - | - | - | - | - | M | M | dense and coloured that made masking to the cell sheet | 1.07 × 10^7 | 1.6 × 10^7 | 33 | 0
COc1ccc(OC)c(C=C2/C(=N/Nc3nc(C)c(C(C)=O)s3)c3ccccc3/C2=N\Nc2nc(C)c(C(C)=O)s2)c1 [11a, 1,1’-((((1E,3E)−2-(2,5-dimethoxybenzylidene)−1H-indene-1,3(2H)-diylidene)bis(hydrazin-1-yl-2-ylidene))bis(4-methylthiazole-2,5-diyl))bis(ethan-1-one)] | - | - |  | M | M | M | M | M | M | M | dense and coloured that made masking to the cell sheet | 1.44 × 10^7 | 0.68 × 10^7 | 10 | 57
CCOC(=O)c1sc(N/N=C2/C(=Cc3cc(OC)ccc3OC)/C(=N/Nc3nc(C)c(C(=O)OCC)s3)c3ccccc32)nc1C [11b, Diethyl 2,2’-(((1E,3E)−2-(2,5-dimethoxybenzylidene)−1H-indene-1,3(2H)-diylidene)bis-(hydrazin-1-yl-2-ylidene))bis(4-methylthiazole-5-carboxylate)] | - | - | - | - | - | M | M | M | M | M | dense and coloured that made masking to the cell sheet | 0.8 × 10^7 | 0.96 × 10^7 | 50 | 40
COc1ccc(OC)c(C=C2/C(=N/Nc3nc(C)cs3)c3ccccc3/C2=N\Nc2nc(C)cs2)c1 [11c, 2,2’-(((1E,3E)−2-(2,5-dimethoxybenzylidene)−1H-indene-1,3(2H)-diylidene)bis(hydrazin-1-yl-2-ylidene))bis(4-methylthiazole)] | - | - | - | - | - | - | - | - | M | M | dense and coloured that made masking to the cell sheet | 0.84 × 10^7 | 0.57 × 10^7 | 47 | 64
